According to US5643890A, “Synthetic oligonucleotides which mimic telomeric sequences for use in treatment of cancer and other diseases” (priority 1995, dated 1997):
Where two headings read alike, the source gives them in different places.

Tests used:
OMA-BL1 cells = assay: Growth rate / doubling time of OMA-BL1 cells cultured with oligo; assay type: cell-based, human; details: for Doubling Time (Hours of Doubling): observed for 5 days
Protocol: A cell line, OMA-BL1, of cells derived from an American Burkitt's lymphoma patient, which had the typical 8:14 chromosome translocation characteristic of Burkitt's lymphoma was tested according to the method of the invention. The OMA-BL1 cells have a homologous staining region along chromosome 18 (18 HSR). The cell line was grown in vitro consisting of RPMI 1640 medium supplemented with 20% fetal calf serum (RF20). 2 mM L-glutamine and antibiotics (streptomycin 100 μ/ml and penicillin) 2× week.
Phosphorothioate oligonucleotides corresponding to the recognition sequence for telomerase enzyme were synthesized. The sequence of oligonucleotides tested was 5'-(TTAGGG)-3' SEQ ID NO: 3. They were dissolved in RPMI1640 medium before using.
The cell lines were grown under concentration of 5×10^5 cells/ml and RPMI1640 with and without different concentrations of oligo. Concentrations of oligo used in the study were 1.25 μM and 2.5 μM. The growth rate of the cells was measured by counting the cells with a light microscope and Neuber cell counter on days 1, 3, and 5 after initiation of the culture. […]

Telomerase enzyme = assay: Telomerase activity in extract of Chang cells incubated with oligo (32P-dGTP primer elongation, gel autoradiograph); assay type: cell-based, human; details: 3 μM oligo, three hours
Protocol: Chang cells (human liver carcinoma) were grown in three T150 flasks until they reached confluency. 5'-d(TTAGGG)-3' SEQ ID NO: 3 phosphorothioate oligonucleotide was added at 3 μM concentration to each of the flasks and was allowed to incubate for three hours. Cells were harvested by scraping with a rubber policeman. Telomerase enzyme was prepared according to the method of Dignam, J. D.; Lebovitz, R. M.; and Raeder, R. G. (1983). Accurate transcription initiation by RNA Polymerase II in a Soluble Extract From Isolated Mammalian Nuclei. Nucl. Acids Res. 11, 1475-1489. 20 μL samples were taken from -80° C. and 20 μL of a reaction mixture containing 4.0mM dATP, 4.0mM dTTP, 4.0 mM dGTP, 2.0 μM (5'-d(TTAGGG)3 -3') SEQ ID NO: 4 primer, 10 mM β-mercaptanol, 100 mM TRIS-acetate pH 8.5, 2.0 mM MgCl2, 1 mM spermidine, and 2 μL of 3000 Ci/mmol P^32 labeled dGTP.
Samples were incubated for 30 minutes at 30° C. and stopped by the addition 10 μL […] EDTA pH 8.0 and 2.0 μL of tracking dye. Samples were loaded onto a 12.5 percent acrylamide gel and run at 25 mA constant power for 4-5 hours until the tracking dye had run off the gel. The gel was then soaked in 10 percent glycerol and water and dried overnight between two sheets of cellophane. […] The telomerase activity was inhibited for the 6-mer oligo.

[1] = tested on: OMA-BL1 cells, PBE1 cells, HPB-null cell line; assay: Cellular uptake of FITC-labeled oligo; assay type: cell-based; details: 6-mer compared with 18-mer; cell lines which have differentiated
Text: Several studies were done on cellular uptake and thus efficiency of oligonucleotide sequences mimicking the telomere motif. FIGS. 4 and 5 depict the comparison of the 18-mer 5'-d(TTAGGG)3 -3' SEQ ID NO: 4 with the 6-mer TELIGO 5'-d(TTAGGG)-3' SEQ ID NO: 3 for cellular uptake of FITC-labeled oligo in OMA-BL1 cells (FIGS. 5 and 4(a)), PBE1 cells FIG. 4(b) and in the nondifferentiated HPB-null cell line FIG. 4(c). […] FIG. 6 depicts the effects of 5'-d(TTAGGG)-3' SEQ ID NO: 3 on growth of OMA-BL1 cells in vitro at 1.25 μM and 2.5 μM.

[2] = tested on: highly metastatic breast cancer cell line (Human); assay: Tumor invasion assay (Matrigel invasion chambers) and proliferation, human breast cancer cell line; assay type: cell-based; details: for % control invasion / % inhibition: Human cell line, 48 hours; for proliferation (in words): human highly metastatic breast cancer cell line; for % inhibition: invasion
410.4 cells = assay: Tumor invasion assay (Matrigel invasion chambers) and proliferation, mouse breast cancer cell line; assay type: cell-based; details: for % control invasion / % inhibition: Mouse cell line, 48 hours; for % inhibition: invasion; for proliferation (in words): mouse highly metastatic breast cancer cell line
Protocol: Migration of 410.4 cells through matrigel coated Nucleopore filters was measured using Matrigel invasion chambers (Collaborative Biomedical Products). These chambers contained inserts with […] pore size and were coated with a uniform film of matrigel. 4×10^4 410.4 cells in Weymouths Medium plus 0.1% bovine serum albumin were added to the invasion chambers. The wells below the invasion chambers contained 0.5 ml of Weymouths plus 10% fetal calf serum as a chemoattractant. […] The noninvasive cells were then removed from the upper surface of the membrane with a cotton swab and the cells on the lower surface were stained using a Leucostat staining kit. The membranes then were removed from the chamber using a scalpel and the cells were counted under high power (450×) in 5 random fields.

[3] = tested on: OMA-BL1, Burkitt's Lymphoma; assay: In vivo efficacy, OMA-BL1 Burkitt's lymphoma in nude mice, continuous subcutaneous infusion
Protocol: Nude mice were injected with 5×10^6 OMA-BL1 cells subcutaneously in the leg flank. The mice were observed daily for the appearance of tumors and general well-being. […] The mean fill volume of these pumps is 0.226 ml. A solution of 4 mg/ml of 6-mers and 20 μl of FITC-TAG-6 was prepared then sterile filtered through a 0.22 μm in line filter (Millipore). […]

telomerase [4] = assay: FAM labeled 6-mer recovered from urine of tumor-bearing nude mouse, size analysis of telomerase products; assay type: in vivo; details: nude mouse bearing OMA-BL1 tumor
Protocol: An FAM labeled 6-mer 5'-d(TTAGGG)-3' SEQ ID NO: 3 was injected into nude mice with Burkitt's lymphoma (OMA-BL1) cells growing in them. The FAM labeled TELIGO was recovered from the urine of a nude mouse bearing a tumor composed of OMA-BL1 cells. The urine was evaluated on an Applied Biosystem, Inc. Gene Scanner which can separate the products of the telomerase enzyme by size along the abscissa and reports the quantity of products by the fluorescence intensity along the ordinate in arbitrary units. An internal standard of rhodamine labeled nucleic acids is run in the same gel in order to establish the measurement of size of the telomerase enzyme products of the TELIGO. The FAM label verifies that the DNA is from the injected TELIGO 6-mer and the size additions of intervals of 6-base lengths is evidence of the telomerase enzyme activity which adds 6 bases per catalytic cycle.
All products were multiples of six which is significant because in that telomerase adds bases to telomeres in multiples of six. Thus it would seem the 6-mer interacts with telomerase to form unique products verifying interaction in vivo.

telomerase [5] = assay: Telomerase activity in OMA-BL1 cell lysate (densitometry of autoradiograph); assay type: biochemical, human; details: test not specified at b115
Protocol: An OMA-BL1 cell lysate was prepared to retain telomerase activity. The telomerase enzyme adds radioactive nucleic acids to the substrate which are separated on a polyacrylamide gel. The relative radioactivity in the gel was measured by densitomitry of the autoradiograph.

cell line = details: cited from earlier work
telomerase [6] = assay: HPB-null cell lysate, incorporation of labeled nucleic acids onto TELIGO 18-mer; assay type: cell-based; details: HPB-null cells
[7] = nude mice, 48 μg/day, 14 days, subcutaneous infusion

Substance | effect on cell proliferation (in words) (OMA-BL1 cells) | Doubling Time (Hours of Doubling) (OMA-BL1 cells; 1.25 μM oligo) [h] | Doubling Time (Hours of Doubling) (OMA-BL1 cells; 2.5 μM oligo) [h] | also measured
5'-d(TAGGG)-3' (DNA, backbone not given here) | no inhibitory effect | 48.5 ± 3.0 | 41.6 ± 2.0 | 
5'AACGGTGAGGGGCAT-3' (chemistry not given here) [c-myc, antisense oligo to the c-myc gene, reference compound] | significantly decreased cellular proliferation |  |  | 
5'-d(TGAGG)-3' (DNA, backbone not given here) |  | 30.3 ± 39 | 42.0 ± 6.8 | 
5'-d(TTAGGG)-3' (phosphorothioate backbone) [6-mer oligonucleotide which mimics the telomere motif] | drastically decreasing cell proliferation | 59.4 ± 7.5 | > 100 | effect on cell proliferation (in words) (OMA-BL1 cells; listed as phosphorothioate 6-mer): significant decrease in cell proliferation; telomerase activity (elongation on autoradiograph) (Telomerase enzyme): inhibited; cellular uptake of FITC-labeled oligo [1]: considerably higher cellular uptake; % control invasion [2]: 30%; proliferation (in words) [2]: inhibition of proliferation; % inhibition [2]: 70%; % control invasion (410.4 cells): 15%; % inhibition (410.4 cells): 75%; proliferation (in words) (410.4 cells): inhibition of proliferation; toxicity during the treatment [3, 7]: No toxicity was observed; tumor regression [3, 7]: regression of tumors; localization of the oligonucleotide ([3]; tumor bearing nude mice, continuous subcutaneous infusion): localization of the oligonucleotide in tumors; substrate for telomerase in vivo (FAM-labeled products in urine, multiples of six) (telomerase [4]): substrate for telomerase in vivo
5'-d(TGTGAG)-3' [reference compound] |  | 42.4 ± 1.8 | 40.9 ± 2.3 | tumor regression [3, 7]: no such action was observed
5'-d(GTTGAGGGG)-3' (DNA, backbone not given here) |  | 49.4 ± 4.02 | 60.71 ± 4.25 | 
5'-d(TCCTAGGTCCATGTCGTACGC)-3' (DNA, backbone not given here) [reference compound] |  |  | 38 | 
5'TATGCTGTGCCGGGGTCTTCGGGC-3' (chemistry not given here) [c-myb antisense oligonucleotide, reference compound] | significantly decreased cellular proliferation |  |  | 
5'-d(TTAGGGTTAGGGTTAGGGTTAGGG)-3' |  | > 100 | > 100 | 
TGTGAGGGG (chemistry not given here) [myc 9-mer, 9-mer derived from the antisense oligo c-myc, contains a motif substantially analogous to the telomere motif] | effects similar to the 6-met |  |  | telomerase activity (in words) (telomerase [5]): inhibited
5'-d(TTAGG)-3' (DNA, backbone not given here) | no inhibitory effect | 31.2 ± 8.5 | 36.7 ± 3.1 | 
5'-d(TTAGGGTTAGGG):' (DNA, backbone not given here) [two telomere repeats] |  | > 100 | > 100 | days in culture before any observable response (cell line): ≤ 6 days
5'-d(TTAGGGTTAGGGTTAGGG)-3' (DNA, backbone not given here) |  | > 100 | > 100 | % control invasion [2]: 8%; proliferation (in words) [2]: inhibition of proliferation; % inhibition [2]: 92%; % control invasion (410.4 cells): 21%; % inhibition (410.4 cells): 79%; proliferation (in words) (410.4 cells): inhibition of proliferation; extension on the TELIGO 18-mer (retained radioactivity) (telomerase [6]): dependent upon the dose
